From patent US6020340A, “Imidazopyridines” (Byk Gulden Lomberg Chemische Fabrik GmbH, priority 1996, dated 2000)

System: PDE IV
Assay: Inhibition of PDE IV activity (method of Bauer and Schwabe, adapted to microtiter plates)
Type: biochemical

Row | Compound | Inhibition of PDE IV activity, -log IC50
1 | COc1ccc(-c2nc3ncccc3[nH]2)c2cc(C(C)C)oc12 [Compound 1, 2-[7-Methoxy-2-(1-methylethyl)benzofuran-4-yl]imidazo[4,5-b]pyridine] | 7.41
2 | CC(C)c1cc2c(-c3nc4ncccc4[nH]3)ccc(OC(F)F)c2o1 [Compound 2, 2-[7-Difluoromethoxy-2(1-methylethyl)benzofuran-4yl]imidazo[4,5-b]pyridine] | 8.14
3 | COc1ccc(-c2nc3ncccc3[nH]2)c2c1OC1(C=C2)CCCC1 [Compound 3, 2-[8-Methoxy-2,2-tetramethylene-1[2H]chromen-5-yl]imidazo[4,5-b]pyridine] | 5.83
4 | COc1ccc(-c2nc3cnccc3[nH]2)c2cc(C3CCCC3)oc12 [Compound 4, 2-(2Cyclopentyl-7-methoxy-benzofuran-4-yl)imidazo[4,5-c]pyridine] | 7.74
5 | COc1ccc(-c2nc3cnccc3[nH]2)c2c1OC1(C=C2)CCCC1 [Compound 5, 2-[8-Methoxy-2,2-tetramethylene-1[2H]chromen-5-yl]imidazo[4,5-c]pyridine] | 6.76
6 | CC(C)c1cc2c(-c3nc4cnccc4[nH]3)ccc(OC(F)F)c2o1 [Compound 6, 2-[7-Difluoromethoxy-2-(1-methylethyl)benzofuran-4-yl]imidazo[4,5-c]pyridine] | 8.38
7 | COc1ccc(-c2nc3cnccc3[nH]2)c2cc(C(C)C)oc12 [Compound 7] | 8.09
